According to ChEMBL document CHEMBL1201862, “PubChem BioAssay data set” (2004):
The source made the active and inactive calls.

Columns and labels:
[1] = molecular target: T1, Hexokinase HKDC1 (Homo sapiens, UniProt Q2TB90); experiment: HKDC1 hexokinase inhibitors, dose response, biochemical, W721R variant (AID 504729); format: functional
T1 sequence (Q2TB90 whole entry): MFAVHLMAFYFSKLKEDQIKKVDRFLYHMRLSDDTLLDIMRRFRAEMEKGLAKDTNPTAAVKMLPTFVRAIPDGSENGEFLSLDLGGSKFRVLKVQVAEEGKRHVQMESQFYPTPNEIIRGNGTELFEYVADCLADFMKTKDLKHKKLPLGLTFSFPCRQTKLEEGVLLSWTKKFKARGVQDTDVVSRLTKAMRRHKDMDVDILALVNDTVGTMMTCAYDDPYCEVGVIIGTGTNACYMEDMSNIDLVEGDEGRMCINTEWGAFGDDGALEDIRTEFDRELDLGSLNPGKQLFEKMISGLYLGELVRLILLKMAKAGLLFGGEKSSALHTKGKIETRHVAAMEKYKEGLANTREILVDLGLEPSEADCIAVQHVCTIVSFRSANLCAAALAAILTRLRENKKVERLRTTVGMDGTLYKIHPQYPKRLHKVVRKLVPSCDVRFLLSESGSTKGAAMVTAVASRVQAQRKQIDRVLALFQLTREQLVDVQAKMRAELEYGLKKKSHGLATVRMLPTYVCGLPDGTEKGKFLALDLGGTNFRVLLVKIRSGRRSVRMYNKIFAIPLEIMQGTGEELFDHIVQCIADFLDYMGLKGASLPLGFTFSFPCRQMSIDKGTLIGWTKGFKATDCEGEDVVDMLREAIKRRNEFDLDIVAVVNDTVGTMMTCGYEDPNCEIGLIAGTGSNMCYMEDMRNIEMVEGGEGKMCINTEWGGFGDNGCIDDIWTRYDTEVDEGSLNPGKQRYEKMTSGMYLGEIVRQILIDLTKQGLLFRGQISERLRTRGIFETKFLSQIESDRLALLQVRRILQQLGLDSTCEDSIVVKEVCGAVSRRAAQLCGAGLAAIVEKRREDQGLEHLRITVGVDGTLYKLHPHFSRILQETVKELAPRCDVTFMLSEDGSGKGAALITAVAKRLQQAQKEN

[2] = Vero E6 cell cytotoxicity, dose response, cytotoxicity control for non-replicating M. tuberculosis project, secondary assay (AID 492998); format: functional, VeroE6; conditions: Vero C1008
[3] = cells; format: functional
[4] = microbe, parasite or virus in culture; format: functional; conditions: Mycobacterium tuberculosis
[5] = THP-1 cell cytotoxicity, dose response, cytotoxicity control for non-replicating M. tuberculosis project (AID 489025); format: functional
[6] = HepG2 cell cytotoxicity, dose response, cytotoxicity control for non-replicating M. tuberculosis project (AID 489018); format: functional; conditions: Mycobacterium tuberculosis
[7] = system: Vero; experiment: cells; format: functional; conditions: Chlorocebus sabaeus
[8] = molecular target: DNA damage-inducible transcript 3 protein (Mus musculus, UniProt P35639); format: functional, Cricetulus griseus
Sequence of DNA damage-inducible transcript 3 protein (P35639 whole entry): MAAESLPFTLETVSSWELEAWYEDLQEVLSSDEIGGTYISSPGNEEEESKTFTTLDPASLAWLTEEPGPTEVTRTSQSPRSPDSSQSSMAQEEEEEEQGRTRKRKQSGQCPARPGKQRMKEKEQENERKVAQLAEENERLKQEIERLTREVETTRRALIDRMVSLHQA

[9] = molecular target: X-box-binding protein 1 (Homo sapiens, UniProt P17861); format: functional, Cricetulus griseus;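 note: confirmatory dose-response counter-screen serving a CHOP assay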
Sequence of X-box-binding protein 1 (P17861 whole entry): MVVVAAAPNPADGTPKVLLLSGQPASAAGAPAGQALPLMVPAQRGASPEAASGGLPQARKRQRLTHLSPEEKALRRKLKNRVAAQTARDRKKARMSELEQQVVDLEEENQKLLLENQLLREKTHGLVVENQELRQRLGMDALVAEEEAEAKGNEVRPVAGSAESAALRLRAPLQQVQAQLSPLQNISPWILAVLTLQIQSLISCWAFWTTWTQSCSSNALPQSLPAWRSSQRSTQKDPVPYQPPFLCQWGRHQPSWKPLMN

[10] = molecular target: Induced myeloid leukemia cell differentiation protein Mcl-1 (Homo sapiens, UniProt Q07820); format: functional
Sequence of Induced myeloid leukemia cell differentiation protein Mcl-1 (Q07820 whole entry): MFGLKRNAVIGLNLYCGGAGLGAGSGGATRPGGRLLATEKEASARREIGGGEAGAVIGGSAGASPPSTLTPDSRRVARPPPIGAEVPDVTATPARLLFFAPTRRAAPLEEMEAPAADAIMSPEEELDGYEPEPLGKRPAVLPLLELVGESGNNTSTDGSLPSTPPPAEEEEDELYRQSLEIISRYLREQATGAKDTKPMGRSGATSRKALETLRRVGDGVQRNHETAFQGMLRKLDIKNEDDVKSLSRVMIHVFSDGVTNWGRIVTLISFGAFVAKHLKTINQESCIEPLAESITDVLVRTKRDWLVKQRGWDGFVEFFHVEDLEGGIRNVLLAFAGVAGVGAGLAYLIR

[11] = molecular target: T2, Bcl-2-like protein 10 (Homo sapiens, UniProt Q9HD36); experiment: displacers of TR3 peptide from Bcl-B, primary screen, selectivity assay for Bfl-1 inhibitor project, biochemical, fluorescence polarization, FITC-TR3 peptide (AID 748);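 note: fluorescence polarization from a fluorescein-labelled TR3 peptide binding purified Bcl-B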
T2 sequence (Q9HD36 whole entry): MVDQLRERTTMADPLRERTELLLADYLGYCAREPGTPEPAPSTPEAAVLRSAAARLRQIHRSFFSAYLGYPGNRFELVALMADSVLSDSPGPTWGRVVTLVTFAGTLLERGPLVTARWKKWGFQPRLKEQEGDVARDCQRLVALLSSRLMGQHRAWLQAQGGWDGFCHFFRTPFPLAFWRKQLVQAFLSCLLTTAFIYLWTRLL

[12] = cells; format: functional, cell-based
[13] = cells; format: functional, cell-based; remark: listed apart in the source

For Cc1cccc(N2C(=O)NC(=O)/C(=C\c3ccc4c(c3)CCCN4Cc3ccccc3)C2=O)c1, the IC50 [1] was 27.6 µM (inactive).
In the case of O=C(c1ccc(Cl)cc1)N1N=C(c2ccccn2)CC1(O)C(F)(F)F (stereo not drawn), the CC50 [2] is reported as 13.3 µM (active), the IC50 [3] is reported as 3.69 µM (active) and the CC50 [4] is reported as 32.6 µM (active). The CC50 [5] was 11.6 µM (active), the CC50 [6] was 15.2 µM (active) and the CC50 [7] was 20.4 µM (active).
In the case of Clc1ccc(-c2csc(N/N=C/c3cccnc3)n2)c(Cl)c1, the “Absolute IC50 (CHOP)” value [8] is reported as 10 µM and the “Absolute IC50 (XBP1)” value [9] is reported as 10 µM.
In the case of Cc1ccc(N=Nc2ccc(O)c(/C=N\NC(=O)c3ccc(N)cc3)c2)cc1C, the IC50 [10] is reported as 2.62 µM (active), the IC50 [11] is reported as > 100 µM (inactive) and the EC50 [12] is reported as > 350 µM (not active). For the same molecule, the EC50 [13] was > 350 µM (not active).
